Measurements: US9867879B2 (Vanderbilt University, priority 2015, dated 2018)
“Also recorded” adds a separate entry of the source. Like-named read-outs stand apart in the source and are kept apart here.

Legend:
HssRS = assay: microbe, parasite or virus in culture; format: cell-based, S. aureus; conditions: for HssRS activation in single point screen: 50 μM, fraction of activation relative to 1, cut-off 0.05, in words; for EC50: Staphylococcus aureus, 6 h; for Efficacy: percent activation of HssRS compared to 1 at 50 μM, error one standard deviation
Method: Previously reported strains were used.^11 Cultures grown overnight in 5 ml TSB with 10 μg mL^−1 chloramphenicol for 15-18 h were subcultured 1:100 into 0.5 mL TSB with 10 μg mL^−1 chloramphenicol containing compound and incubated at 37° C., 180 rpm for 6 h. Cells were washed and lysed as previously described. 200 μL of a 200 μM catechol solution in 100 mM potassium phosphate (pH 8.0) was added to 20 μL of lysate and the oxidation of catechol was followed by monitoring absorbance at 375 nm for 10 min. Samples were normalized to protein concentration as determined by BCA assay (Pierce).
The above XylE procedure was followed using different concentrations of compound. The data were then entered into Graphpad Prism 6 and fit to a curve to determine EC50 values.
HssRS activation. The library was screened for activation of the heme stress response as an indicator for activation of heme biosynthesis in S. aureus. We began by screening at the single point concentration of 50 μM using a previously described reporter assay (FIG. 4).^11 In this assay, Newman harboring a plasmid with the hrt promoter fused to xylE, a gene encoding a catechol oxidase, is treated with compound for six hours, the bacteria lysed, and the oxidation of catechol by XylE quantified by spectrophotometry. An increase in absorbance due to the oxidation of catechol indicates elevated levels of xylE transcription and hrt promoter activity. Results are expressed as the fraction of activation of HssRS by the compound compared to 1. […] With reference to FIG. 8, activation of HssRS by 3a and 3b at 50 μM. Activity is presented as the fraction of activation by the indicated derivative relative to 1 at 50 μM.

[1] = test system: wild type S. aureus strain Newman; assay: Growth inhibition IC50, Newman anaerobic (fermenting); format: cell-based; conditions: for IC50: Staphylococcus aureus, NEWMAN, 9 h of growth, anaerobic chamber, 95% confidence interval, >60 μM considered nontoxic; for toxicity to fermenting / anaerobic S. aureus (in words): anaerobic Newman and ΔmenB, from IC50 data
Method: (§1) Cultures of wild type S. aureus strain Newman and ΔmenB^14 were grown in aeration tubes aerobically at 37° C. with shaking for 15-18 h. Anaerobic cultures were prepared by growing bacteria at 37° C. without shaking in an anaerobic chamber for 15-18 h. Bacteria from each condition were subcultured 1:100 into TSB containing various concentrations of compound in a 96 well plate. Aerobic wild type and ΔmenB plates are incubated aerobically at 37° C. with shaking while anaerobic plates were grown in an anaerobic chamber (Coy) at 37° C. without shaking. The absorbance at 600 nm (OD600) was determined after 9 h of growth and the fraction of growth at each compound concentration is determined by dividing the OD600 by the vehicle control (DMSO) value. IC50s were calculated using Graphpad Prism 6 and errors are reported as 95% confidence intervals.
(§2) Wild type S. aureus strain Newman was grown in an anaerobic chamber in appropriate media to ensure exclusion of terminal electron acceptors sufficient to force the bacteria to ferment. […] The arbitrary cut off point for toxicity of 60 μM was chosen as many of the compounds were not entirely soluble above this concentration.

ΔmenB = assay: Growth inhibition IC50, ΔmenB; format: cell-based, S. aureus; conditions: Staphylococcus aureus, 9 h, read-out: IC50 ΔmenB
Method: as §1, with “intervals. […]” for “intervals.”

[2] = test system: wild type S. aureus strain Newman; assay: Growth inhibition IC50, Newman aerobic; format: cell-based; conditions: Staphylococcus aureus, NEWMAN, 95% confidence interval, >60 μM considered nontoxic
Method: as §1, §2

[3] = 9 h, read-out: IC50 Newman aerobic, 9 h of growth, aerobic
[4] = 9 h of growth, aerobic, read-out: IC50 Newman aerobic

SMILES | HssRS activation in single point screen (HssRS) | EC50 (HssRS) [µM] | EC50 (HssRS; read-out: pEC50 (converted)) [µM] | drop in efficacy (HssRS; compared to 1) [%] | Efficacy (HssRS) [%] | IC50 [1] [µM] | toxicity to fermenting / anaerobic S. aureus (in words) [1] | IC50 (ΔmenB) [µM] | IC50 [2, 3] [µM] | IC50 [2, 4] [µM] | HssRS activation (in words) (HssRS; summary statements, concentration not fixed)
Oc1ccccc1-c1cc(-c2cc(F)ccc2F)[nH]n1 [Compound 2f, 2-(5-(2,5-difluorophenyl)-1H-pyrazol-3-yl)phenol] | comparable to 1a in activity | 13.6 | 12.6 | ~70 | 30.1 ± 8.0 | > 60 | eliminates this toxicity | > 60 | > 60 | – | –
Cc1cc(-c2ccccc2O)n[nH]1 [Compound 2k, 2-(5-methyl-1H-pyrazol-3-yl)phenol] | – | – | – | – | – | > 60 | nontoxic under all conditions | > 60 | > 60 | – | –
c1ccc(-c2cc(-c3ccco3)[nH]n2)cc1 [Compound 1g, 5-(furan-2-yl)-3-phenyl-1H-pyrazole] | loss of HssRS activation compared to 1 and 1a | – | – | – | – | > 60 | – | > 60 | > 60 | – | –
Oc1ccccc1-c1cc(C2CCCC2)[nH]n1 [Compound 2n, 2-(5-cyclopentyl-1H-pyrazol-3-yl)phenol] | – | – | – | – | – | 25.3 | comparably toxic to 1 | 29.7 | > 60 | – | –
COc1ccc(-c2cc(-c3ccco3)[nH]n2)c(O)c1 [Compound 1b, 2-(5-(furan-2-yl)-1H-pyrazol-3-yl)-5-methoxyphenol] | modest loss of activity compared to 1 | 50.2 | 50.1 | – | 26.2 ± 6.7 | > 60 | relatively nontoxic to fermenting S. aureus | > 60 | > 60 | – | –
CC(C)(C)c1cc(-c2ccccc2O)n[nH]1 [Compound 2m, 2-(5-(tert-butyl)-1H-pyrazol-3-yl)phenol] | – | – | – | – | – | > 60 | nontoxic under all conditions | > 60 | > 60 | – | –
CCc1cc(-c2ccccc2O)n[nH]1 [Compound 2l, 2-(5-ethyl-1H-pyrazol-3-yl)phenol] | – | – | – | – | – | > 60 | nontoxic under all conditions | > 60 | > 60 | – | –
Oc1ccccc1-c1cc(-c2ccccn2)[nH]n1 [Compound 2g] | – | – | – | – | – | > 60 | – | > 60 | > 60 | – | –
COc1ccccc1-c1cc(-c2ccco2)[nH]n1 [Compound 1d, 5-(furan-2-yl)-3-(2-methoxyphenyl)-1H-pyrazole] | loss of HssRS activation compared to 1 and 1a | – | – | – | – | > 60 | – | > 60 | > 60 | – | –
Oc1cccc(-c2cc(-c3ccco3)[nH]n2)c1 [Compound 1e, 3-(5-(furan-2-yl)-1H-pyrazol-3-yl)phenol] | loss of HssRS activation compared to 1 and 1a | – | – | – | – | > 60 | – | > 60 | > 60 | – | –
COc1c(-c2cc(-c3ccco3)[nH]n2)ccc2ccccc12 [Compound 1c, 5-(furan-2-yl)-3-(1-methoxynaphthalen-2-yl)-1H-pyrazole] | complete loss of activity | – | – | – | – | > 60 | eliminates toxicity | > 60 | > 60 | – | –
O=C(Nc1ccccc1-c1cc(-c2ccco2)[nH]n1)c1cccc2ccccc12 [Compound 1k, N-(2-(5-(furan-2-yl)-1H-pyrazol-3-yl)phenyl)-1-naphthamide] | – | – | – | – | – | 13.4 | – | 5.89 | > 60 | – | –
COc1ccccc1-c1cc(-c2ccccc2F)[nH]n1 [Compound 3b, 5-(2-fluorophenyl)-3-(2-methoxyphenyl)-1H-pyrazole] | – | – | – | – | – | > 60 | eliminates toxicity | > 60 | > 60 | – | –
Oc1ccccc1-c1cc(-c2ccco2)[nH]n1 [Compound 1a, 2-(5-(furan-2-yl)-1H-pyrazol-3-yl)phenol] | modest loss of activity compared to 1 | 30.4 | 32.4 | – | 28.2 ± 5.4 | – | relatively nontoxic to fermenting S. aureus | 35.6 | – | > 60 | –
Oc1ccccc1-c1cc(-c2ccoc2)[nH]n1 [Compound 2b] | – | – | – | – | – | > 60 | – | > 60 | > 60 | – | –
Cn1nc(-c2ccc3ccccc3c2O)cc1-c1ccco1 [Compound 4b, 2-(5-(furan-2-yl)-1-methyl-1H-pyrazol-3-yl)naphthalen-1-ol] | complete loss of activity | – | – | – | – | 4.27 | – | 3.3 | > 60 | – | –
Oc1ccccc1-c1cc[nH]n1 [Compound 2j, 2-(1H-pyrazol-3-yl)phenol] | eliminates activity compared to 1 and 1a | – | – | – | – | > 60 | nontoxic under all conditions | > 60 | > 60 | – | –
CS(=O)(=O)Nc1ccccc1-c1cc(-c2ccco2)[nH]n1 [Compound 1h, N-(2-(5-(furan-2-yl)-1H-pyrazol-3-yl)phenyl)methanesulfonamide] | loss of HssRS activation compared to 1 and 1a | – | – | – | – | > 60 | nontoxic under fermentative conditions | > 60 | > 60 | – | –
O=C(Nc1ccccc1-c1cc(-c2ccco2)[nH]n1)c1ccco1 [Compound 1l, N-(2-(5-furan-2-yl)-1H-pyrazol-3-yl)phenylfuran-2-carboxamide] | – | – | – | – | – | 28.8 | – | 21.4 | > 60 | – | –
COc1ccc(C(=O)Nc2ccccc2-c2cc(-c3ccco3)[nH]n2)cc1 [Compound 1j, N-(2-(5-(furan-2-yl)-1H-pyrazol-3-yl)phenyl)-4-methoxybenzamide] | – | – | – | – | – | 11.6 | – | 6.63 | > 60 | – | –
Oc1ccc(-c2cc(-c3ccco3)[nH]n2)cc1 [Compound 1f] | loss of HssRS activation compared to 1 and 1a | – | – | – | – | > 60 | – | > 60 | > 60 | – | –
Oc1ccccc1-c1cc(-c2ccccc2)[nH]n1 [Compound 2c, 2-(5-phenyl-1H-pyrazol-3-yl)phenol] | restore activity comparable to 1 | 14.6 | 21.9 | – | 87.8 ± 23.7 | 24 | anaerobic toxicity similar to 1; also recorded: restores toxicity comparable to 1 | 25.2 | – | > 60 | maintains HssRS activity
Oc1ccccc1-c1cc(-c2cccnc2)[nH]n1 [Compound 2h, 2-(5-(pyridin-3-yl)-1H-pyrazol-3-yl)phenol] | – | – | – | – | – | > 60 | – | > 60 | > 60 | – | –
